In patent US9764014B2, “Use of toll-like receptor ligands as adjuvants to vaccination therapy for brain tumors” (Cedars-Sinai Medical Center, priority 2008, dated 2017):

Columns and labels:
BMDC = experiment: IL-6, TNF-α and IL-12 ELISA of BMDC activated by GL26 lysate vs. TLR ligands; assay type: cell-based, C57BL/6 mice; conditions: FIG. 9 bottom panel, GL26 lysate plus TLR ligand
Protocol: Experiments were performed with at least three replicates per condition. As controls for these experiments the inventors utilized brain tissue lysate obtained from healthy C57BL/6 mice and untreated DCs. Furthermore, for each TLR ligand, the inventors utilized up to three different concentrations previously shown to activate dendritic cells in order to identify the best concentration for maximal activation of BMDC. […] However, TLR ligands alone consistently promote increases the dependent variables measured to a greater degree than TLR ligands with tumor lysate. However, it is likely that activation by TLR ligands alone would not prime T cells to be tumor antigen specific. […] Therefore, ELISA on BMDC treated with GL26 lysate and individual TLR ligands were performed as described above. […] TNF-α and IL-12 (FIG. 9).
Primary BMDCs were isolated from the femurs of 6-10 week old C57BL/6 mice and cultured in RPMI cell culture media with GM-CSF (1000 IU/ML) and IL-4 (1000 IU/ML). BMDCs (1×10^6 cells/ml) were maintained in cell culture at 37° C., 5% CO2 and exposed to with […] GL26 freeze-thaw lysate and either TLR2 ligand (Pam3Cys, 50 μg/ml), TLR4 ligand (LPS 50 ng/ml), or TLR9 ligand (CpG ODN 1826, 5 μM) overnight (ON). Control cells were treated with […] GL26 freeze-thaw lysate only. […]

primary BMDC = experiment: IL-6 ELISA from primary BMDC derived from MyD88−/− and littermate controls; assay type: cell-based, mice; conditions: MyD88−/− DC compared to BMDC from wild-type littermate controls; LPS 100 ng/ml or 10 ng/ml with GL26 lysate
Protocol: Briefly, BMDCs were cultured in 24-well plates at 3×10^5 cells/ml and exposed to TLR ligands and lysate for 24 hours. Cell culture media were collected for ELISA analysis against IL-6, TNF-α and IL-12. Three independent experiments with at least three replicates per experiment were performed.
While the inventors provide evidence that GL26 tumor cells and TLR ligands activate primary BMDC. […] It is possible that the GL26 tumor cell activation is signaling through TLRs or at least through downstream signaling molecule MyD88. Therefore, primary dendritic cells from MyD88−/− and Wild-type controls were isolated and exposed to GL26 lysate and TLR ligand LPS at 100 ng/ml or 10 ng/ml. The inventors believe that LPS activation in MyD88−/− DC will not show up-regulation of secreted IL-6 protein as measured by ELISA. […] Furthermore, no significant difference exists between MyD88−/− and wild-type derived BMDC exposed to brain lysate (FIG. 10).
Primary BMDCs were isolated from the bone marrow of femurs of euthanized MyD88−/− and their +/+ littermate controls as described above. BMDCs were activated using 1) GL26 tumor lysate alone; 2) TLR ligands (Pam3cys (50 μg/ml) or LPS (50 ng/ml) or CpG ODN (5 μM) and tumor lysate for each; 3) Treatment of DCs with brain lysate alone may also serves as a control condition.

[1] = system: primary dendritic cells from MyD88−/− and wild-type controls; experiment: ELISA for TNF-alpha in primary DC treated with LPS; assay type: cell-based, mice
Description: While the inventors provide evidence that GL26 tumor cells and TLR ligands activate DC2.4 cells, it is unknown if GL26 lysate activation is signaling through MyD88−/− and/or TRIF dependent pathways. It is possible that the GL26 tumor cell activation is signaling through TLRs or at least through downstream signaling molecules MyD88 and/or TRIF. Therefore, the inventors isolated primary dendritic cells from MyD88−/− and wild-type controls and exposed them to GL26 lysate and TLR ligand LPS. The inventors believe that LPS activation in MyD88−/− DC will not show up-regulation of TNF-alpha protein as measured by ELISA.

Pam3cys
IL-12 protein production (BMDC): relatively limited increases

lipopolysaccharide [LPS]
IL-6 secreted protein levels by ELISA (primary BMDC): reduced | TNF-alpha protein by ELISA ([1]; MyD88−/− DC): no up-regulation | TNF-alpha protein by ELISA ([1]; wild-type DCs, compared to controls): significant up-regulations
